Reference: PubChem BioAssay AID248 (DTP/NCI, 2004)
Where “and” joins values, the source holds several entries; their conditions need not be identical. Identical values can stand only once. Inconclusive results and toxic doses are left out. Cut-off read from the data, not from the text of the source: active = T/C of 150% or more; inactive = T/C below 125%.

System: L1210 leukemia ip in BDF1 mice, survival T/C
Assay: NCI In Vivo Anticancer Drug Screen. Data for tumor model L1210 Leukemia (intraperitoneal) in B6D2F1 (BDF1) mice
Settings: endpoint: mean survival time, higher = longer survival
How it was run: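 Read-out is survival time, reported as the treated-group measurement over the vehicle-control measurement.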

[1] = dose: 100.0 mg/kg/injection, schedule: Q04DX003 (ip), vehicle: carboxymethylcellulose (CMC)
[2] = dose: 200.0 mg/kg/injection, schedule: Q04DX003 (ip), vehicle: carboxymethylcellulose (CMC)
[3] = dose: 400.0 mg/kg/injection, schedule: Q04DX003 (ip), vehicle: carboxymethylcellulose (CMC)
[4] = dose: 100.0 mg/kg/injection, schedule: Q01DX009 (ip), vehicle: Klucel (hydroxypropylcellulose) (HPC)
[5] = dose: 100.0 mg/kg/injection, schedule: Q04DX003 (ip), vehicle: Klucel (hydroxypropylcellulose) (HPC)
[6] = dose: 200.0 mg/kg/injection, schedule: Q01DX009 (ip), vehicle: Klucel (hydroxypropylcellulose) (HPC)
[7] = dose: 400.0 mg/kg/injection, schedule: Q01DX009 (ip), vehicle: Klucel (hydroxypropylcellulose) (HPC)
[8] = dose: 100.0 mg/kg/injection, schedule: Q04DX002 (ip), vehicle: Klucel (hydroxypropylcellulose) (HPC)
[9] = dose: 200.0 mg/kg/injection, schedule: Q04DX002 (ip), vehicle: Klucel (hydroxypropylcellulose) (HPC)
[10] = dose: 400.0 mg/kg/injection, schedule: Q04DX002 (ip), vehicle: Klucel (hydroxypropylcellulose) (HPC)
[11] = dose: 100.0 mg/kg/injection, schedule: Q04DX003 (ip), vehicle: saline with Tween-80
[12] = dose: 50.0 mg/kg/injection, schedule: Q01DX001 (ip), vehicle: saline
[13] = dose: 100.0 mg/kg/injection, schedule: Q01DX001 (ip), vehicle: saline
[14] = dose: 200.0 mg/kg/injection, schedule: Q01DX001 (ip), vehicle: saline
[15] = dose: 400.0 mg/kg/injection, schedule: Q01DX001 (ip), vehicle: saline
[16] = dose: 25.0 mg/kg/injection, schedule: Q01DX009 (ip), vehicle: saline with Tween-80
[17] = dose: 50.0 mg/kg/injection, schedule: Q01DX009 (ip), vehicle: saline with Tween-80
[18] = dose: 100.0 mg/kg/injection, schedule: Q04DX003 (ip), vehicle: saline
[19] = dose: 200.0 mg/kg/injection, schedule: Q04DX003 (ip), vehicle: saline

Measured: T/C

O=C(Cc1cnccn1)c1ccc(C(=O)Cc2cnccn2)cc1
inactive: [1] 94 % of control | [2] 103 % of control | [3] 102 % of control

COc1ccc2c(c1O)C13CCN(C)C(C2)C1CCC(O)C3 (configuration not stated)
inactive: [4] 95 % of control | [5] 104 % of control | [6] 101 % of control | dose: 200.0 mg/kg/injection, schedule: Q04DX003 (ip), vehicle: Klucel (hydroxypropylcellulose) (HPC) 88 % of control | [7] 98 % of control | dose: 400.0 mg/kg/injection, schedule: Q04DX003 (ip), vehicle: Klucel (hydroxypropylcellulose) (HPC) 86 % of control

CN(C)c1ccccc1C#N
inactive: dose: 100.0 mg/kg/injection, schedule: Q01DX009 (ip), vehicle: carboxymethylcellulose (CMC) 93 % of control and 103 % of control | dose: 100.0 mg/kg/injection, schedule: Q04DX002 (ip), vehicle: carboxymethylcellulose (CMC) 108 % of control | [1] 106 % of control | dose: 200.0 mg/kg/injection, schedule: Q01DX009 (ip), vehicle: carboxymethylcellulose (CMC) 98 % of control and 104 % of control | dose: 200.0 mg/kg/injection, schedule: Q04DX002 (ip), vehicle: carboxymethylcellulose (CMC) 94 % of control | [2] 101 % of control | dose: 400.0 mg/kg/injection, schedule: Q01DX009 (ip), vehicle: carboxymethylcellulose (CMC) 113 % of control | dose: 400.0 mg/kg/injection, schedule: Q04DX002 (ip), vehicle: carboxymethylcellulose (CMC) 115 % of control | [3] 98 % of control

Cc1ccc(N2CCN(CCCN3CCN(c4ccc(Cl)cc4)CC3)CC2)cc1
inactive: dose: 8.0 mg/kg/injection, schedule: Q01DX Z (ip), vehicle: carboxymethylcellulose (CMC) 98 % of control | dose: 16.0 mg/kg/injection, schedule: Q01DX Z (ip), vehicle: carboxymethylcellulose (CMC) 95 % of control | [5] 109 % of control

CS(=O)(=O)OCCC(COS(C)(=O)=O)S(=O)(=O)Cc1ccccc1 (configuration not stated)
inactive: dose: 15.0 mg/kg/injection, schedule: Q01DX001 (ip), vehicle: saline 101 % of control | dose: 30.0 mg/kg/injection, schedule: Q01DX001 (ip), vehicle: saline 104 % of control

O=C1c2ccccc2C2(Br)C(=O)c3ccccc3C12Br (configuration not stated)
inactive: [8] 104 % of control | [9] 101 % of control | [10] 93 % of control

CCCC1(CCC)NC(=O)N(CC(N)=O)C1=O
inactive: [11] 100 % of control | dose: 200.0 mg/kg/injection, schedule: Q04DX003 (ip), vehicle: saline with Tween-80 102 % of control | dose: 400.0 mg/kg/injection, schedule: Q04DX003 (ip), vehicle: saline with Tween-80 98 % of control

COc1nc(=O)n(C2CCCO2)cc1C (configuration not stated)
inactive: [12] 95 % of control | [13] 95 % of control | [14] 104 % of control | [15] 98 % of control

[CH3][Sn]([CH3])=[O]
inactive: dose: 5.0 mg/kg/injection, schedule: Q01DX001 (ip), vehicle: other 95 % of control | dose: 5.0 mg/kg/injection, schedule: Q01DX001 (ip), vehicle: saline 107 % of control | dose: 10.0 mg/kg/injection, schedule: Q01DX001 (ip), vehicle: other 98 % of control | dose: 10.0 mg/kg/injection, schedule: Q01DX001 (ip), vehicle: saline 98 % of control | dose: 20.0 mg/kg/injection, schedule: Q01DX001 (ip), vehicle: other 93 % of control | dose: 20.0 mg/kg/injection, schedule: Q01DX001 (ip), vehicle: saline 108 % of control | dose: 40.0 mg/kg/injection, schedule: Q01DX001 (ip), vehicle: other 103 % of control | dose: 40.0 mg/kg/injection, schedule: Q01DX001 (ip), vehicle: saline 95 % of control

C/C=C/CNc1ccc(C)cc1
inactive: [16] 102 % of control | dose: 25.0 mg/kg/injection, schedule: Q04DX003 (ip), vehicle: saline with Tween-80 97 % of control | [17] 97 % of control | dose: 50.0 mg/kg/injection, schedule: Q04DX003 (ip), vehicle: saline with Tween-80 90 % of control | [11] 101 % of control

Nc1nc(N)c(-c2ccc(Cl)cc2)c(C(=O)O)n1
inactive: [16] 90 % of control | [17] 97 % of control | dose: 100.0 mg/kg/injection, schedule: Q01DX009 (ip), vehicle: saline with Tween-80 93 % of control and 103 % of control

CCOC(=O)c1ccc(NC(=O)Oc2ccc(OC)cc2)cc1
inactive: [4] 96 % of control | [6] 100 % of control | [7] 98 % of control

O=C(Nc1c(Oc2ccc(Cl)cc2Cl)ccc(Cl)c1S(=O)(=O)O)Nc1c(Oc2ccc(Cl)cc2Cl)ccc(Cl)c1S(=O)(=O)O
inactive: dose: 50.0 mg/kg/injection, schedule: Q04DX003 (ip), vehicle: saline 101 % of control | [18] 97 % of control | [19] 95 % of control

CCOc1ccc(NC(C)=O)cc1CN(CCCl)CCBr
inactive: dose: 100.0 mg/kg/injection, schedule: Q01DX001 (ip), vehicle: Klucel (hydroxypropylcellulose) (HPC) 97 % of control | dose: 200.0 mg/kg/injection, schedule: Q01DX001 (ip), vehicle: Klucel (hydroxypropylcellulose) (HPC) 111 % of control | dose: 400.0 mg/kg/injection, schedule: Q01DX001 (ip), vehicle: Klucel (hydroxypropylcellulose) (HPC) 100 % of control

N#CSCC(=O)c1ccc(Cl)cc1
inactive: dose: 50.0 mg/kg/injection, schedule: Q01DX001 (ip), vehicle: carboxymethylcellulose (CMC) 91 % of control | dose: 100.0 mg/kg/injection, schedule: Q01DX001 (ip), vehicle: carboxymethylcellulose (CMC) 100 % of control | dose: 200.0 mg/kg/injection, schedule: Q01DX001 (ip), vehicle: carboxymethylcellulose (CMC) 100 % of control

CCCCCCCCCCCCOC(=O)C[n+]1cccc(C(=O)NCc2ccccc2)c1
inactive: dose: 6.25 mg/kg/injection, schedule: Q01DX009 (ip), vehicle: saline with Tween-80 98 % of control | dose: 12.5 mg/kg/injection, schedule: Q01DX009 (ip), vehicle: saline with Tween-80 94 % of control | [16] 102 % of control

O=C(CCCC(=O)N/N=C/c1cc(Cl)ccc1[N+](=O)[O-])N/N=C\c1cc(Cl)ccc1[N+](=O)[O-]
inactive: [12] 98 % of control | [13] 90 % of control | [14] 95 % of control | [15] 98 % of control

Cc1cc(=O)[nH]c(O)c1C(=O)/C=C/c1ccccc1
inactive: [13] 96 % of control | [14] 102 % of control

OCC1(c2ccccc2)CCCC1(CO)c1ccccc1 (configuration not stated)
inactive: dose: 15.0 mg/kg/injection, schedule: Q01DX001 (ip), vehicle: carboxymethylcellulose (CMC) 95 % of control | dose: 30.0 mg/kg/injection, schedule: Q01DX001 (ip), vehicle: carboxymethylcellulose (CMC) 93 % of control | dose: 60.0 mg/kg/injection, schedule: Q01DX001 (ip), vehicle: carboxymethylcellulose (CMC) 91 % of control

C=CCNC(=S)N(Cc1ccccc1)Cc1ccccc1
inactive: [8] 105 % of control | [9] 101 % of control | [10] 94 % of control

CC1=C/C(=N/NC(N)=O)CC(C)C1 (configuration not stated)
inactive: [18] 100 % of control | [19] 98 % of control | dose: 400.0 mg/kg/injection, schedule: Q04DX003 (ip), vehicle: saline 97 % of control

CC(=O)Nc1cccc(OC(=O)Nc2cccc(Cl)c2Cl)c1
inactive: [4] 97 % of control | [6] 102 % of control | [7] 103 % of control
